US12648984B2, “Long term treatment of psoriasis” (priority 2023, dated 2026)

Tested on: extensive plaque psoriasis on the trunk
Assay: one patient case: once-daily topical application on the whole trunk
Assay type: in vivo, human
Conditions: same patient; for effect of earlier treatments on redness and psoriasis: regular treatment before the composition (UVA, then hydrocortisone, then Acitretine); for status upon cessation of earlier treatments: upon cessation of earlier treatment
Text: The composition has been evaluated in one patient case. A […], presenting extensive plaque psoriasis on the trunk for several years (illustration 1), was regularly treated with UVA, then hydrocortisone, then Acitretine.
They were provided with the composition according to the invention to apply once daily on the whole trunk. No concomitant treatment for psoriasis or else was used.
After 6 months, treatment with the composition was discontinued. Several months after discontinuation, the patient was questioned regarding the status of the disease.

| Compound | effect of earlier treatments on redness and psoriasis | status upon cessation of earlier treatments |
| --- | --- | --- |
| COc1cc(C)c(/C=C/C(C)=C/C=C/C(C)=C/C(=O)O)c(C)c1C [Acitretine] | reduced redness, but never the psoriasis itself | redness came back |
| C[C@]12CCC(=O)C=C1CC[C@@H]1[C@@H]2[C@@H](O)C[C@@]2(C)[C@H]1CC[C@]2(O)C(=O)CO [hydrocortisone] | reduced redness, but never the psoriasis itself | redness came back |
